Results published in US8071548B2, “Method of reducing injury to mammalian cells” (Nono, Inc., priority 2002, dated 2011).

Key:
traumatic brain injury = assay: Lateral fluid percussion injury model of TBI; format: in vivo, Sprague-Dawley rats; conditions: analyzed 24 h after injury
Method: Adult male Sprague-Dawley rats weighing approximately 350 g were ordered from Charles River and anesthesia was induced using a gaseous mixture of 1:2 oxygen:nitrous oxide with 2% halothane. The halothane level was reduced to 1% during surgical manipulations and weights were recorded prior to preparatory surgery. The preparatory surgery for these experiments included the cannulation of the left femoral vein and a 5 mm diameter craniotomy. The venous cannula is sealed and tucked inside the animal whereupon the wound is sutured. The center of the craniotomy lies about 2.5 mm to the right of the sagittal suture, between the bregma and lambda. A modified Leur-loc is attached to the perimeter of the craniotomy with superglue (FIG. 28).
Dental acrylic (GC America Inc, Alsip, Ill.) is applied around the modified Leur-loc to seal it into place. A small piece of gelfoam is placed into the opening and the skin is sutured over the entire setup. The animal is then returned to its cage. The following day, the animal is re-anesthetized, weighed, and its wound is re-opened. The gelfoam is removed and the animal is attached to the fluid percussion device via the modified Leur-loc. At this time, the animal is given a ˜20 ms saline injection at approximately 2.4 atmospheres (350 mV on the oscilloscope) using the fluid percussion injury device (Custom Design & Fabrication, Richmond, Va.) (FIG. 29).
On occasion, the animal ceases spontaneous breathing following the injury and 1-2 chest compressions are required for resuscitation. The modified Leur-loc along with the dental acrylic is removed en bloc immediately following the injury. The animal is placed on 100% oxygen while its wound is cleaned and resealed with Vetbond tissue adhesive (3M Worldwide, Maplewood, Minn.). The rat's body temperature during the recovery time is maintained at 37° C. with a homeothermic warming blanket (Harvard Bioscience Inc, Holliston, Mass.). The amount of time necessary for the righting reflex to return is recorded and the animal is placed back into its cage. At 3 h post-injury, the animal is re-anesthetized and weighed again. The wound overlying the femoral cannula is opened and the cannula is cleaned out using heparinized saline. […] The cannula is sealed, tucked again into the animal, and the wound is re-sutured. At 24 h post-injury, the animal is re-anesthetized and weighed again. The rat is transcardially perfused using heparinized saline to clean out the cardiovascular system, followed by a 4% formalin fixative solution. The rat is decapitated and left in the fixative solution overnight. The brain is extracted the following day and processed. The volume of damaged brain (FIG. 26, right graph) is assessed according to the same methods as described in Aarts et al., 2002, for assessing stroke volumes. […]

NMDARs = assay: NMDA-evoked 45Ca2+ accumulation in cortical cultures; format: cell-based, mouse; conditions: 50 nM pre-treatment
Method: Excitotoxicity and Ca^2+ accumulation measurements were performed identically to the methods described and validated in refs. 4 and 14. I used measurements of propidium iodide fluorescence as an index of cell death, and of radiolabelled ^45Ca^2+ accumulation for Ca^2+ load determinations in sister cultures on the same day. Experimental solutions were as previously described (4). Ca^2+ influx was pharmacologically channeled through distinct pathways as follows: To NMDARs by applying NMDA (×60 min) in the presence of both CNQX (Research Biochemicals Inc.) and nimodipine (Miles Pharmaceuticals), to non-NMDARs by applying kainic acid (×60 min or 24 h) in the presence of both MK-801 (RBI) and nimodipine, and to VSCCs using 50 mM K^+ solution (×60 min) containing 10 mM Ca^2+ and S(−)-Bay K 8644, an L-type channel agonist (300-500 nM; RBI), MK-801 and CNQX. Antagonist concentrations were (in μM): MK-801 10, CNQX 10, nimodipine 2. All three antagonists were added after the 60 min agonist applications for the remainder of all experiments (24 h). A validation of this approach in isolating Ca^2+ influx to the desired pathway in these cortical cultures has been published (4).

[1] = test system: cultured cortical neurons; assay: NMDA excitotoxicity in cultured cortical neurons (propidium iodide fluorescence); format: cell-based, mouse
[2] = test system: transient middle cerebral artery occlusion; assay: Transient MCAO, post-treatment study (1 h after MCAO onset); format: in vivo, Sprague-Dawley rats; conditions: 3 nMole/g i.v. 1 h after MCAO onset
Method: Next, I examined whether pretreatment with Tat-peptides would reduce stroke damage. Experiments were carried out in adult male Sprague-Dawley rats subjected to transient middle cerebral artery occlusion (MCAO) for 90 minutes by the intraluminal suture method (36,37). Animals were fasted overnight and injected with atropine sulfate (0.5 mg/kg IP). After 10 minutes anesthesia was induced with 3.5% halothane in a mixture of nitrous oxide and oxygen (Vol. 2:1) and maintained with 0.8% halothane. Rats were orally intubated, mechanically ventilated, and paralyzed with pancuronium bromide (0.6 mg/kg IV). Body temperature was maintained at 36.5-37.5° C. with a heating lamp. Polyethylene catheters in the femoral artery and vein were used to continuously record blood pressure and to sample blood for gas and pH measurements. […] This produces an extensive infarction encompassing the cerebral cortex and basal ganglia. […] Physiological parameters (body temperature, blood pressure, blood gases) were monitored and maintained throughout the experiment (Table 1). All experimental manipulations and analyses of data were performed by individuals blinded to the treatment groups. The extent of cerebral infarction was measured 24 h after MCAO onset (FIG. 7C inset). The postural reflex test (38), and the forelimb placing test (39) were used to grade neurological function on a scale of 0 to 12 (normal=0; worst=12) during MCAO (at 50 minutes) and 24 h thereafter.
Next, I examined whether treatment with Tat-NR2B9c could attenuate ischemic neuronal damage in-vivo when given after stroke onset. […] Infarction volume and neurological outcome measurements were performed at times identical to the pre-treatment study. Body temperature, blood pressure and blood gases were monitored throughout the 24 h experiment and maintained equivalent between groups (Table 2).

[3] = test system: transient unilateral middle cerebral artery occlusion

## Tat-KLSSIESDV [Tat-NR2B9c]
Traumatic brain injury; 3 hours after TBI
  total volume of injured brain: significantly reduced
Traumatic brain injury; via femoral cannula 3 hours after TBI
  fraction of dead cells in cerebral cortex and hippocampus ipsilateral to the injury: markedly reduced fraction of dead cells
NMDARs
  uptake of 45Ca2+ produced by applying NMDA: did not alter
[1]; 50 nM applied after 1 h NMDA challenge (0-100 μM), cell death at 20 h
  vulnerability of neurons to NMDA toxicity, post-treatment: significantly reduced
[1]; 50 nM for 1 h, then NMDA 0-100 μM 1 h, 20 h observation
  NMDA-evoked cell death, pre-treatment: significantly reduced
[2]
  24 h neurological scores: significant improvement
[2]; 24 h
  reduction in cortical infarction volume: 86.97±4.38%
[2]; 24 h, vs controls
  reduction of volume of total cerebral infarction: 67.0±3.75%
[3]; 3 nmoles/g i.v. 3 hours after onset of ischemia
  return to pre-surgery weight for 2 consecutive days, earlier than saline or NR2B-AA treated rats: about 1 week
[3]; 6 days following MCA occlusion
  Mean latency to retreat from the open to the closed arm in the elevated plus maze: significant difference from Tat-NR2B-AA
[3]; MCAO 90 min
  Mean (SE) core temperature during surgery: 37.1 (∀0.1)
  Mean (SE) core temperature subsequent to surgery: 37.9 (∀0.2)
  Mean (SE) systolic blood pressure during surgery: 112 (∀6.3)
  Mean (SE) systolic blood pressure prior to surgery: 106 (∀4.3)
  Mean (SE) systolic blood pressure subsequent to surgery: 122 (∀5.5)
[3]; MCAO 90 min, drug i.v. 3 hours after onset of ischemia
  Mean (SE) core temperature prior to surgery: 36.7 (∀0.2)
[3]; a number of days including day 56 post-injury
  individual weight post-surgery versus controls: significantly heavier
[3]; approximately 2 months post-injury
  Morris water maze acquisition phase: No significant group differences
[3]; approximately 2 months post-injury, vs combined control
  Morris water maze memory (time in the target quadrant): significantly reduced memory deficits
[3]; days 36-45
  Barnes maze escape latencies, acquisition phase: consistently shorter mean escape latencies
[3]; days 36-45, relative to controls
  Barnes maze retest (memory): performed significantly better
[3]; difference between day 5 and day 15
  Habituation score for grid crosses in the open field arena: significant difference from Tat-NR2B-AA and Saline
[3]; post-surgery days 5, 9 and 14
  latency in horizontal ladder task: significantly reduced latencies
  number of paw slips in horizontal ladder task: significantly fewer paw slips
[3]; relative to TAT-NR2B-AA and saline
  total infarct area and volume at 62 days post-surgery: reduced total infarct area and volume
[3]; treated at 3 hours post-MCAO
  Mean sensory-motor score over 56 days post-MCAO: significant long-term functional neuroprotection
